Data set [1] is described as follows: Comparison of water-scavenging activity in pigment millbase (GC determination of remaining water). An excerpt:
The water-scavenging activity of 4-ethyl-2-isopropyl oxazolidine (BBA), 1-aza-3,7-dioxo-2,8-diisopropyl-5-ethylbicyclo (3.3.0) octane (EBA), p-toluenesulfonyl isocyanate (PTSI), isophorone diisocyanate (IPDI), and sodium potassium aluminosilicate (SPAS) were compared in pigment millbase formulation. Formulations of this type are representative of pigment formulations used in moisture-curing urethane coating systems. The following millbase formulation was used: […]
The following procedure was used to prepare the millbase. All the materials were weighed out and added under agitation into a pot. Soft Resin P-65, obtained from Mobay Corp., is a 65% synthetic (non-reactive polyester) resin in solvent Naphtha 100 and is employed as a grind aid. CAB 551, obtained from Eastman Chemical Products, Inc., Kingsport, Tenn., is cellulose acetate butyrate ester and was employed as a rheology aid. CAB 551 was dissolved in PMA. PMA is propylene glycol monomethyl ether acetate obtained from Eastman Chemical Products, Inc. The solution of CAB 551 in PMA included 33% CAB 551 by weight. Anti-Terra-U is a wetting and dispersing additive obtained from BYK-Chemie U.S.A., Wallingford Conn., and is a solution of a salt of unsaturated polyamine amides and higher molecular weight acidic esters. Ektasolve-EEP, obtained from Eastman Chemicals Products, Inc., is ethyl-3-ethoxypropionate stabilized with 2,6-di-tert-butyl- p-cresol, and was employed as a solvent. M-P-A 2000X, obtained from Rheox, Inc., Hightstown, N.J., was employed as an antisettling agent. R-960-TiO2 is a titanium dioxide pigment obtained from E.I. du Pont Nemours & Co., Inc., Wilmington, Del.
Once the ingredients were added to the vessel they were continuously agitated until a 7 Hegman grind value was obtained for the mixture. The millbase was then heated to 60° C. A portion of the mixture was removed, and the percent of water remaining was determined using gas chromatography. Using the determined percentage of water, the minimum amount of the water-scavenger compound to be added to the millbase was calculated using the following equation:
Minimum weight of water scavenger=wt. mb.×wt. % H2 O×(1/MW
H2 O×mol.×MW scavenger/purity)
The determined amount of each moisture-scavenger was added to one millbase. Six millbases were prepared. Each of the five moisture-scavengers listed above were tested in a millbase with one millbase remaining untreated as a control. Once the millbases were treated, they were mixed continuously. At 30 minutes, 60 minutes, 120 minutes, 180 minutes, 240 minutes, and 300 minutes, samples of the millbase were removed and the amount of water remaining in the millbase was determined using gas chromatography. In each trial two moles of moisture scavenger was used for every mole of water. The results of 6 trials are summarized below in Table I and graphically represented in FIG. 1.

In data set [2] the test system is male and female New Zealand White albino rabbits. Nature of the data set: Acute dermal toxicity (TSCA, 789.1100). To be noted: topical, 2 g/Kg. It counts as in vivo. On the procedure:
Based upon the standards of the Toxic Substance Control Act (TSCA), 40 CFR, Part 798, Subpart A, General Toxicity Testing, Acute Dermal Toxicity, 789.1100, July 1989, the compound was evaluated for its potential to produce systematic toxicity or death following topical application at a dose of 2 g/Kg in male and female New Zealand White albino rabbits.

The test system of data set [3] is skin of New Zealand White Rabbits. The data set is described as follows: Primary dermal irritation (TSCA, Section 798.4470). To be noted: single topical application, TSCA guidelines. It counts as in vivo. How it is done: Based upon the standards of the Toxic Substances Control Act (TSCA), 40 CFR, Part 798, Subpart E, Specific Organ/Tissue Toxicity, Primary Dermal Irritation, Section 798.4470, July 1989, 2-isopropyl-4-ethyl oxazolidine was evaluated for its potential to produce primary dermal irritation after a single topical application to the skin of New Zealand White Rabbits.

Data set [4] in a line: Acute oral toxicity (TSCA, 40 CFR Part 798, 798.1175). As to conditions: rat, in vivo, dose levels 1.80, 1.50 and 1.30 g/kg, male and female Sprague-Dawley rats. On the procedure: Based upon the standards of the Toxic Substance Control Act (TSCA), 40 CFR, Part 798, Subpart A, General Toxicity Testing, Acute Oral Toxicity, 798.1175, July 1989, 2-isopropyl-4-ethyl oxazolidine was evaluated for its potential to produce death following oral administration at dose levels of 1.80g/kg, 1.50 g/kg, and 1.30 g/kg, to male and female Sprague-Dawley rates.

The subject of data set [5] is four strains of Salmonella typhimurium. Nature of the data set: Ames Mutagenicity Assay. It counts as cell-based. As to conditions: presence and absence of exogenous mammalian activation system. On the procedure: The Ames Mutagenicity Assay was performed to determine the mutagenicity of the compound. The assay evaluates the mutagenic potential of a test substance by its ability to induce back mutations at selected loci of four strains of Salmonella typhimurium in the presence and absence of an exogenous mammalian activation system.

Data set [6] concerns intact skin of New Zealand White rabbits. Nature of the data set: Primary skin irritation (FIFRA, 40 CFR 162). It counts as in vivo. On the procedure: The primary skin irritation of the compound was evaluated in compliance with the conditions specified in the Regulation for the Enforcement of Federal Insecticide, Fungicide and Rodenticide Act (40 CFR 162). A small amount of the compound (0.5 ml) was applied to an intact skin site on six New Zealand White rabbits (three males and three females) and allowed to remain in contact with the skin for 4 hours. The sites were scored for erythema and edema and checked for tissue damage 1/2 hour after the end of the application period (41/2 hour reading) and […] (24-hour reading) and at 48 and 72 hours.

Data set [7] relates to male and female Sprague-Dawley derived albino rats. The data set is described as follows: Acute oral toxicity (FIFRA, 40 CFR 162). The format is in vivo. To be noted: undiluted, 5.0 g/kg, rats. On the procedure: (§1) The acute oral toxicity of the compound was evaluated in compliance with the conditions specified in the Regulation for the Enforcement of Federal Insecticide, Fungicide and Rodenticide Act (40 CFR 162). The compound was administered undiluted at a dosage of 5.0 g/kg to one group of five male and five female, Sprague-Dawley derived, albino rats. […] Animals were weighed seven days after treatment. At the end of the 14-day observation period, the rats were weighed, killed, and given a gross necropsy.

Data set [8] can be described thus: Acute oral toxicity (FIFRA, 40 CFR 162). The format is in vivo, Sprague-Dawley derived, albino rats. To be noted: rat, in vivo, undiluted, male and female Sprague-Dawley rats. On the procedure: as §1
The test system of data set [9] is eye of New Zealand White rabbits. Nature of the data set: Primary eye irritation (FIFRA, 40 CFR 162). It counts as in vivo. How it is done: The primary […] irritation of the compound was evaluated in compliance with the conditions specified in the Regulation for the Enforcement of Federal Insecticide, Fungicide and Rodenticide Act (40 CFR 162). A small amount of the undiluted compound (0.1 ml) was applied to the right or left eye of six New Zealand White rabbits (one male and five females). The compound was allowed to remain without rinsing in the eyes of the animals. The eyes were graded for corneal changes, conjunctival changes, and changes in the iris one hour after application, and one, two, three, four, and seven days later.

For data set [10], the system named is skin of male and female New Zealand White Rabbits. The data set is described as follows: Acute dermal toxicity (FIFRA, 40 CFR 162). It counts as in vivo. As to conditions: undiluted, 2.0 g/kg for 24 hours, rabbits. On the procedure: (§2) The acute dermal toxicity of the compound was evaluated in compliance with the conditions specified in the Regulation for the Enforcement of Federal Insecticide, Fungicide and Rodenticide Act (40 CFR 162). The compound was applied undiluted to the skin of one group of five male and five female New Zealand White Rabbits at a dosage of 2.0 g/kg for 24 hours. […] Animals were weighted 7 days after treatment. At the end of the 14day observation period, the rabbits were weighed, killed, and given a gross necropsy.

Data set [11] is described as follows: Acute dermal toxicity (FIFRA, 40 CFR 162). It counts as in vivo, New Zealand White Rabbits. To be noted: rabbit, in vivo, topical or ocular, undiluted, male and female New Zealand White rabbits. On the procedure: as §2
Setting [12] is: 2 hrs, millbase heated to 60° C., two moles of scavenger per mole of water.

Read-outs that look alike come from different tables or passages of the source. Bounds are passed on as bounds.

In general, LD50 refers to the dose at which mortality reaches 50%. Low values mean a more toxic substance, high ones a less toxic substance. `CCC1COC(C(C)C)N1` (stereo not drawn) [BBA, 4-ethyl-2-isopropyl oxazolidine]: in [1], the “% H2O Remaining After 30 min.” value is recorded as “.20%”, the “% H2O Remaining After 60 min.” value is “.19%” and the “% H2O Remaining After 2 hrs.” value is recorded as “.13%”. The “acute dermal toxicity classification” value in data set [2] (TSCA guidelines) is “non-toxic”. In data set [2] (male and female rabbits), the “acute dermal toxicity: mortality” value is “absence of mortality”. In data set [3], the “primary dermal irritation classification” value was “moderate irritant”. Further, in data set [4], the LD50 worked out at 1600 mg/kg. For the same compound, the “mutagenicity (Ames)” value in data set [5] is on record as “non-mutagenic”.

For `CCC12COC(C(C)C)N1C(C(C)C)OC2` (stereo not drawn) [EBA], in data set [6] (0.5 ml, 4 hours contact, 72 hours after application), the persistence of irritation result is “Mild irritation persisted 72 hours after application”. Further, in data set [6] (rabbit, in vivo), the “Primary Irritation Index” value is 2.7 and the “tissue damage (corrosion)” value is “No evidence of tissue damage (corrosion)”. Further, in data set [7] (14-day observation), the clinical changes result is “urine and/or fecal stains, mucoid feces, and alopecia”; the deaths entry is reported as “No deaths occurred”. Besides, in data set [7] (end of 14-day observation), the gross necropsy findings entry was “one rat with darkened and mottled lungs, otherwise no gross changes”. Also, in data set [8], the LD50 at 336 h is > 5000 mg/kg. In addition, in [1], the “% H2O Remaining After 30 min.” value is “.08%”, the “% H2O Remaining After 60 min.” value is recorded as “.08%” and the “% H2O Remaining After 2 hrs.” value is “.06%”. For the same compound, the eye irritation persistence entry in data set [9] (0.1 ml undiluted, without rinsing, six rabbits) is “irritation persisting for seven days”. Also, the corneal opacity entry in data set [9] (rabbit, in vivo) was “corneal opacity persisting for less than seven days”. In [10] (14-day observation), the clinical changes entry is listed as “No clinical changes were observed” and the deaths entry is listed as “No deaths occurred”. Besides, in data set [10] (end of 14-day observation), the gross necropsy findings entry is given as “no significant gross changes”. For the same compound, the “most frequently observed irritative effects” value in data set [10] was “erythema and desquamation”. Also, in [11], the LD50 at 336 h was > 2000 mg/kg. Also, in [5], the “mutagenicity (Ames)” value is recorded as “non-mutagenic”.

For the compound `CC1(C)CC(N=C=O)CC(C)(CN=C=O)C1` (stereo not drawn) [IPDI, isophorone diisocyanate, reference compound], the “% H2O Remaining After 2 hrs.” value in data set [1] (setting [12]) is recorded as “< .02%”.

As for `Cc1ccc(S(=O)(=O)N=C=O)cc1` [PTSI, p-toluenesulfonyl isocyanate, reference compound], in data set [1] (30 min, millbase heated to 60° C., two moles of scavenger per mole of water), the “% H2O Remaining After 30 min.” value was “< .05%”. Besides, the “% H2O Remaining After 60 min.” value in [1] (60 min, millbase heated to 60° C., two moles of scavenger per mole of water) is recorded as “< .05%”. Further, the “% H2O Remaining After 2 hrs.” value in data set [1] (setting [12]) is reported as “< .05%”.

For the origin of these results see patent US5264148A, “Moisture scavenging oxazolidines” (Angus Cheical Company, priority 1990, dated 1993).
